# Measurements from patent US12240828B2, “Heteroaromatic compounds as vanin inhibitors” (Boehringer Ingelheim International GmbH, priority 2018, dated 2025).
# Assays:
# [1] = molecular target: T1, FLAG-tagged Vanin-1 (AA 22-493, T26I) (Homo sapiens, UniProt O95497, T26I); experiment: Vanin-1 enzymatic assay; type: biochemical; conditions: 0.1 nM Vanin-1, 3 μM D-pantethine, pantothenic acid formation by RapidFire MS; geometric mean if multiple measurements; read-out: VNN-1 IC50
# T1 construct: FLAG-tagged Vanin-1 (AA 22-493, T26I, produced internally); FLAG; made in house
# T1 sequence (O95497 22-493 T26I): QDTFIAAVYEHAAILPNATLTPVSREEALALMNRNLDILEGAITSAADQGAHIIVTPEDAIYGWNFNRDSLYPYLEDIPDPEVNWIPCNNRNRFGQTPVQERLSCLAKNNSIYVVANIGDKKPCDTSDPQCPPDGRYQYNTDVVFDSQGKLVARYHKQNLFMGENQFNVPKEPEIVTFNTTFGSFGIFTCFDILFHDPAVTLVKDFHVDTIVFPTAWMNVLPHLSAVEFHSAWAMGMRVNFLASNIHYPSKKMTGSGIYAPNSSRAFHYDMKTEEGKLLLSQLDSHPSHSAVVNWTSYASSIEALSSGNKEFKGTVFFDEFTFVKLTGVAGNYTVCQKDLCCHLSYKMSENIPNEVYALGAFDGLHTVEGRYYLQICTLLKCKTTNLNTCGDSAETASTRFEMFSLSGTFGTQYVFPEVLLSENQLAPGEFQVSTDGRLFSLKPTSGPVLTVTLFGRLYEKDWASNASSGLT
# Protocol: The test compounds are dissolved in 100% DMSO at a concentration of 10 mM and in a first step diluted in DMSO to a concentration of 5 mM, followed by serial dilution steps in 100% DMSO. Dilution factor and number of dilution steps may vary according to needs. Typically 8 different concentrations by 1:5 dilutions are prepared, a further intermediate dilutions of the substances is carried out with assay buffer resulting in 1% final DMSO concentration in the assay.
# 0.1 nM of FLAG-tagged Vanin-1 (AA 22-493, T26I, produced internally) and test compounds are incubated at room temperature for 20 minutes in assay buffer (1 mM DTT, 0.0025% Brij-35, 50 mM HEPES, pH7.5). D-Pantethine (Sigma, Cat #P2125-5G) in assay buffer is added (final concentration 3 μM) and incubated for additional 30 minutes at room temperature. Total assay volume typically is 40 μl but might be adjusted according to needs. Reaction is stopped by adding equal volume of stop solution as the reaction mixture to reach 100 nM HD-pantothenic acid (as an internal standard) and 1% TFA. Assay plates are centrifuged for 2 minutes and the formation of pantothenic acid is detected by RapidFire Mass Spectrometry (mobile phase A: 0.1% formic acid and 0.01% trifluoroacetic acid in water; mobile phase B: 47.5% acetonitrile, 47.5% methanol, 0.1% formic acid and 0.01% trifluoroacetic acid in water) using a C18, 12 μL cartridge (Agilent Cat #G9205A).
# The values given in Table I result from measurements of one or more samples. In case of multiple measurements the geometric mean values are given.
# [2] = tested on: Pantetheinase (vanin); experiment: Human Whole Blood assay; type: cell-based; conditions: pantethine substrate, pantothenic acid formation by RapidFire MS, read-out: HWB IC50
# Protocol: Human Whole Blood assay: Pantetheinase (vanin) converts panteheine into pantothenic acid and cysteamine. Accordingly, in the described protocol vanin activity is quantified by formation of pantothenic acid after pantetheine supplementation via pantethine. The assay is applicable to identify vanin inhibitors. Compound stocks are dissolved in DMSO at 10 mM. Further dilutions are performed in RPMI 1640 medium (Gibco, #A-10491-01) and final concentrations in the assay are 0.032 nM-500 nM.
# Human blood is drawn into a blood bag (1% heparin, 50 I.E./mL). Blood is aliquoted into cavities of 96-deep-well plates at 290 μL and mixed with 10 μL compound solution or vehicle (30 sec at 1400 rpm on a shaker). Equilibration follows at room temperature, 250 rpm and for 30 min. The assay is starts by adding 10 μL of substrate solution (20 μM pantethine in 1 mM DTT, 0.0025% Brij-35, 50 mM HEPES, pH7.5) to each well, except for some blank wells which receive […] substrate buffer (1 mM DTT, 0.0025% Brij-35, 50 mM HEPES, pH7.5) only. Samples are thoroughly shaken (30 sec, 1400 rpm) and reaction is allowed to take place at room temperature, 250 rpm and for 5 min. The reaction is stopped by addition of a vanin tool inhibitor in excess (BI-1 total conc. 10 μM). Centrifugation of the plate follows at 4° C., 665 G for 10 min. Then the blood plasma samples (100 μL) are transferred into another 96-deep-well plate and proteins are precipitated (5 min on ice) by adding 100 μL of ice cold precipitation solution (1 μM labelled pantothenic acid (di-β-alanine-13C6,15N2 calcium salt, Sigma, #705837) in acetonitrile). Afterwards the plate is centrifuged (4° C., 3220 G, 10 min) and supernatants (50 μL) are collected into another 96-deep-well plate and mixed (10 sec, 1400 rpm) with 150 μL ice cold formic acid (0.1%, Carl Roth GmbH+Co.KG, #CP03.1). The formation of pantothenic acid is detected by RapidFire Mass Spectrometry. A TripleQuad 6500+ (ABSciex, Germany) is equipped with an LC-1290 system, a RapidFire autosampler (Agilent, Germany) and a C18 cartridge Type C 12 μL (Agilent Cat #G9526-80000). Mobile phase A is consisting of 0.09% formic acid and 0.01% trifluoroacetic acid in water and mobile phase B of 0.09% formic acid and 0.01% trifluoroacetic acid in acetonitrile/methanol/water=47.5/47.5/5.
Structure (SMILES),IC50 [1],IC50 [2]
CN(C(=O)C1CC1)[C@H]1CCN(C(=O)c2ccc(NCc3cccnc3)nc2)C1 [Example 1.8],0.12 nM,1.69 nM
Cc1ccncc1CNc1ccc(C(=O)N2CC[C@H](N(C)C(=O)C3(C)CCC3)C2)cn1 [Example 1.9],0.12 nM,1.9 nM
COc1ccncc1CNc1ccc(C(=O)N2CC[C@H](N(C)C(=O)C3CC3)C2)cn1 [Example 1.10],0.14 nM,1.24 nM
"CC(=O)N(C)[C@H]1CCN(C(=O)c2ccc(N[C@@H](C)c3ccc(Cl)nc3)nc2)C1 [Example 1.11, N-[(3S)-1-(6-{[(1S)-1-(6-chloropyridin-3-yl)ethyl]-amino}pyridine-3-carbonyl)pyrrolidin-3-yl]-N-methylacetamide]",0.15 nM,1.9 nM
CC(=O)N(C)[C@H]1CCN(C(=O)c2ccc(N[C@@H](C)c3cccc(C#N)c3)nc2)C1 [Example 1.12],0.16 nM,6.13 nM
CN(C(=O)C1(C)CCC1)[C@H]1CCN(C(=O)c2ccc(NCc3cccnc3)nc2)C1 [Example 1.14],0.18 nM,8.7 nM
Cc1ncccc1CNc1ccc(C(=O)N2CC[C@H](N(C)C(=O)C3CC3)C2)cn1 [Example 1.15],0.21 nM,1.52 nM
CC(=O)N(C)[C@H]1CCN(C(=O)c2ccc(NC3(c4cncc(C(F)(F)F)c4)CC3)nc2)C1 [Example 1.17],0.21 nM,5.59 nM
Cc1ncccc1CNc1ccc(C(=O)N2CC[C@H](N(C)C(=O)C3(C)CCC3)C2)cn1 [Example 1.18],0.22 nM,1.77 nM
CC(=O)N(C)[C@H]1CCN(C(=O)c2ccc(N[C@@H](C)c3cccc(S(N)(=O)=O)c3)nc2)C1 [Example 1.19],0.22 nM,2.63 nM
CC(=O)N(C)[C@H]1CCN(C(=O)c2ccc(NC3(c4ccc(C(F)(F)F)nc4)CC3)nc2)C1 [Example 1.20],0.23 nM,4.74 nM
CNS(=O)(=O)c1cccc(C(C)Nc2ccc(C(=O)N3CC[C@H](N(C)C(C)=O)C3)cn2)c1 (some centres unmarked) [Example 1.21],0.24 nM,0.8 nM
COc1ccncc1CNc1ccc(C(=O)N2CC[C@H](N(C)C(=O)C3(C)CCC3)C2)cn1 [Example 1.22],0.24 nM,2.51 nM
CNS(=O)(=O)c1cccc([C@H](C)Nc2ccc(C(=O)N3CC[C@H](N(C)C(C)=O)C3)cn2)c1 [Example 1.23],0.26 nM,5.21 nM
CN(C(=O)C1CC1)[C@H]1CCN(C(=O)c2ccc(NCc3ccc(N)nc3)nc2)C1 [Example 1.24],0.27 nM,1.44 nM
CN(C(=O)C1(C)CCC1)[C@H]1CCN(C(=O)c2ccc(NC3CCc4[nH]ncc43)nc2)C1 (some centres unmarked) [Example 1.26],0.29 nM,1.98 nM
CC(=O)N(C)[C@H]1CCN(C(=O)c2ccc(NC(C)c3cccc(S(N)(=O)=O)c3)nc2)C1 (some centres unmarked) [Example 1.27],0.3 nM,4.39 nM
C[C@@H](Nc1ccc(C(=O)N2CC[C@H](N(C)C(=O)C3(C)CCC3)C2)cn1)c1cnccn1 [Example 1.30],0.4 nM,3.28 nM
CN(C(=O)C1(C)CCC1)[C@H]1CCN(C(=O)c2ccc(NCc3ccc(N)nc3)nc2)C1 [Example 1.31],0.44 nM,2.63 nM

Structure (SMILES),IC50 [1],IC50 [2]
CN(C(=O)C1CC1)[C@H]1CCN(C(=O)c2ccc(NCc3cnccc3C(F)(F)F)nc2)C1 [Example 1.33],0.46 nM,2.05 nM
CC(=O)N(C)[C@H]1CCN(C(=O)c2ccc(NC3CCc4ncccc43)nc2)C1 (some centres unmarked) [Example 1.37],0.61 nM,1.07 nM
CN(C(=O)C1CC1)[C@H]1CCN(C(=O)c2ccc(NCc3cncc(F)c3)nc2)C1 [Example 1.38],0.65 nM,5.19 nM
CC(=O)N(C)[C@H]1CCN(C(=O)c2ccc(NC(C)c3cccc(C#N)c3)nc2)C1 (some centres unmarked) [Example 1.40],0.67 nM,2.1 nM
CC(=O)N(C)[C@H]1CCN(C(=O)c2ccc(NCc3cccs3)nc2)C1 [Example 1.42],0.85 nM,9.88 nM
CC(=O)N(C)[C@H]1CCN(C(=O)c2ccc(NCc3cncc(F)c3)nc2)C1 [Example 1.43],0.86 nM,3.24 nM
CN(C)c1ccc(CNc2ccc(C(=O)N3CC[C@H](N(C)C(=O)C4CC4)C3)cn2)cn1 [Example 1.44],0.91 nM,7.03 nM
COc1ccc(CNc2ccc(C(=O)N3CC[C@H](N(C)C(=O)C4CC4)C3)cn2)cn1 [Example 1.47],0.97 nM,5.93 nM
"CN(C(=O)C1CC1)[C@H]1CCN(C(=O)c2ccc(NC(C)(C)c3ccccc3)nc2)C1 [Example 2.1, N-Methyl-N-[(3S)-1-{6-[(2-phenylpropan-2-yl)amino]pyridine-3-carbonyl}pyrrolidin-3-yl]cyclopropanecarboxamide]",0.06 nM,3.57 nM
CN(C(=O)C1CCC1)[C@H]1CCN(C(=O)c2ccc(NC(C)(C)c3ccccc3)nc2)C1 [Example 2.2],0.07 nM,4.49 nM
"CN(C(=O)C1CCC1)[C@H]1CCN(C(=O)c2ccc(NCc3cccnc3)nc2)C1 [Example 3.1, N-Methyl-N-[(3S)-1-(6-{[(pyridin-3-yl)methyl]amino}pyridine-3-carbonyl)pyrrolidin-3-yl]cyclobutanecarboxamide]",0.07 nM,1.33 nM
C[C@H](Nc1ccc(C(=O)N2CCC(C)(C#N)C2)cn1)c1ccccc1 (some centres unmarked) [Example 3.2],0.19 nM,1.94 nM
CC1(C#N)CCN(C(=O)c2ccc(NCc3cccnc3)nc2)C1 (centres unmarked) [Example 3.3],0.24 nM,1.6 nM
"CC(=O)N(C)[C@H]1CCN(C(=O)c2ccc(NCc3ccc(Cl)cc3)nc2)C1 [Example 4.1, N-[(3S)-1-(6-{[(4-Chlorophenyl)methyl]amino}pyridine-3-carbonyl)pyrrolidin-3-yl]-N-methylacetamide]",0.68 nM,5.88 nM
CC(C)(Nc1ccc(C(=O)N2CC[C@H](N3CCCC3=O)C2)cn1)c1ccccc1 [Example 4.2],0.1 nM,2.43 nM
CC(C)(Nc1ccc(C(=O)N2CC[C@H](N3CCOC3=O)C2)cn1)c1ccccc1 [Example 4.3],0.12 nM,2.32 nM
CC(=O)N(C)[C@H]1CCN(C(=O)c2ccc(NC(C)(C)c3ccccc3)nc2)C1 [Example 4.4],0.12 nM,1.34 nM
CN(C(=O)C1(C#N)CC1)[C@H]1CCN(C(=O)c2ccc(NC(C)(C)c3ccccc3)nc2)C1 [Example 4.5],0.14 nM,1.27 nM
